Laboratory results taken from the CheMixHub ionic liquid set.

Experiment: xn = mol fraction of the nth substance listed
Conditions: for electrical conductivity: 100 kPa; for viscosity: 101 kPa

CCCCCCCCCC[n+]1ccn(C)c1.O=S(=O)([O-])C(F)(F)C(F)(F)C(F)(F)C(F)(F)F + O
298.15 K
Conditions	electrical conductivity [S/m]
x1 = 1.66e-06	0.00043
x1 = 2.36e-06	0.00063
x1 = 3.06e-06	0.00086
x1 = 4.11e-06	0.00114
x1 = 5.17e-06	0.00146
x1 = 5.95e-06	0.00163
x1 = 6.65e-06	0.00186
x1 = 7.44e-06	0.00212
x1 = 8.14e-06	0.00237
x1 = 8.76e-06	0.00252
x1 = 9.8e-06	0.00283
x1 = 1.042e-05	0.003
x1 = 1.103e-05	0.00323
x1 = 1.164e-05	0.00343
x1 = 1.234e-05	0.00363
x1 = 1.323e-05	0.00389
x1 = 1.384e-05	0.00412
x1 = 1.445e-05	0.00429
x1 = 1.506e-05	0.00446
x1 = 1.586e-05	0.00466
x1 = 1.638e-05	0.00486
x1 = 1.699e-05	0.00506
x1 = 1.779e-05	0.00529
x1 = 1.831e-05	0.00541
x1 = 1.901e-05	0.00569
x1 = 1.971e-05	0.00578
x1 = 2.058e-05	0.00601
x1 = 2.171e-05	0.00621
x1 = 2.26e-05	0.00635
x1 = 2.33e-05	0.00649
x1 = 2.443e-05	0.00669
x1 = 2.512e-05	0.00678
x1 = 2.618e-05	0.00695
x1 = 2.714e-05	0.00703
x1 = 2.793e-05	0.0072
x1 = 2.907e-05	0.00729
x1 = 3.011e-05	0.0074
x1 = 3.116e-05	0.00746
x1 = 3.229e-05	0.00763
x1 = 3.361e-05	0.00777
x1 = 3.526e-05	0.00791
x1 = 3.649e-05	0.008
x1 = 3.815e-05	0.00814
x1 = 3.971e-05	0.00825
x1 = 4.103e-05	0.00831

CCCCCCCC[n+]1ccc2ccccc2c1.O=S(=O)([N-]S(=O)(=O)C(F)(F)F)C(F)(F)F + Cc1ccccc1
Conditions	viscosity [mPa·s]
298.15 K, x2 = 0.0818	308
298.15 K, x2 = 0.4775	50.6
298.15 K, x2 = 0.4902	48.5
308.15 K, x2 = 0.0818	162.6
308.15 K, x2 = 0.2746	81.6
308.15 K, x2 = 0.4295	41.74
308.15 K, x2 = 0.4775	32.56
318.15 K, x2 = 0.1949	67
318.15 K, x2 = 0.6148	11.19
318.15 K, x2 = 0.8672	2.19
328.15 K, x2 = 0.3638	25.85
328.15 K, x2 = 0.4295	19.34
328.15 K, x2 = 0.5467	12.11
328.15 K, x2 = 0.7004	5.51
338.15 K, x2 = 0	44.8
338.15 K, x2 = 0.4775	11.71
